Assay results from publication PMC9012132 (Journal of medicinal chemistry, 2021).
Entries after “also recorded” stand apart in the source; their conditions may differ.

Tests used:
[1] = system: 4T1 breast cancer cells; test: Combination treatment with doxorubicin in 4T1 cells; settings: combination with 50 nM doxorubicin, 4 days
[2] = system: 4T1 breast cancer cells; test: Inhibitor toxicity study in 4T1 cells; assay type: cell-based, mouse
[3] = system: Stratifin (Sfn); test: RT-qPCR of BPTF regulated genes in Eph4 cells, Sfn; settings: 5 μM, 24 h, relative to DMSO
[4] = system: BPTF knockdown (KD) 4T1 cells; test: Inhibitors with doxorubicin in shRNA-mediated BPTF knockdown 4T1 cells; assay type: cell-based, mouse; settings: inhibitor and doxorubicin, control for off-target effects
[5] = target: 5FW-BRD4(1) (Homo sapiens, UniProt O60885); test: Protein-observed fluorine; assay type: binding; settings: qualitative
[6] = target: 5FW-CECR2 (Homo sapiens, UniProt Q9BXF3); test: Protein-observed fluorine; assay type: binding; settings: qualitative
[7] = target: T1, 5FW-PCAF (Homo sapiens, UniProt Q92831); test: Protein-observed fluorine; assay type: binding; settings: qualitative
T1 sequence (Q92831 723-827): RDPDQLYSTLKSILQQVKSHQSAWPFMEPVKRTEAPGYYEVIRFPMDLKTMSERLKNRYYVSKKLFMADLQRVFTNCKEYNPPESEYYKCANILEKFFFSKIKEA

[8] = system: CECR2; settings: cited from earlier work
[9] = target: BRD4(1) (Homo sapiens, UniProt O60885); test: AlphaScreen competitive inhibition assay, BRD4; assay type: binding
[10] = target: BPTF bromodomain (Homo sapiens, UniProt Q12830); assay type: binding; settings: AlphaScreen
[11] = target: T2, BRD9 (Homo sapiens, UniProt Q9H8M2); settings: previously reported; cited from earlier work
T2 sequence (Q9H8M2 136-240 limits assumed): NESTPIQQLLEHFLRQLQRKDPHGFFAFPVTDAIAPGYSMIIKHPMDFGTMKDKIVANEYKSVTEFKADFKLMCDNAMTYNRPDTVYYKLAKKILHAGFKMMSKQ

[12] = target: T3, PCAF (Homo sapiens, UniProt Q92831); settings: previously reported; cited from earlier work
T3 sequence (Q92831 723-827 limits assumed): T1 sequence (Q92831 723-827)

5FW-CECR2, sequence (Q9BXF3 434-538): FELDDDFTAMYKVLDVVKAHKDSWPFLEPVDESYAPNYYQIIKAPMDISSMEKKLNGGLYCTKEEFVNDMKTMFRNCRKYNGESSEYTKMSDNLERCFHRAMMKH

COC(=O)c1cccc(NC(=O)NC2CCN(c3ccnc(Nc4ccc(F)cc4)n3)C2)c1 (stereo not shown) [AU1, reference compound]
sensitization of 4T1 cells to doxorubicin [1]: synergize
concentration above which sharp toxicity profile starts [2]: above 16 μM
effect on Sfn mRNA level [3]: upregulated Sfn but did not reach a high enough level of statistical significance
further toxicity in BPTF knockdown cells [4]: Additional toxicity

Cn1ncc(Nc2ccc(CCN)cc2)c(Cl)c1=O [Compound 18, 5-((4-(2-aminoethyl)phenyl)amino)-4-chloro-2-methylpyridazin-3(2H)-one]
PrOF NMR chemical exchange regime with BRD4(1) [5]: fast-intermediate exchange
PrOF NMR chemical exchange regime with CECR2 [6]: intermediate chemical exchange
sensitization of 4T1 cells to doxorubicin ([1]; listed as BZ1): sensitized
PrOF NMR chemical exchange regime with PCAF [7]: slow exchange regime

CN(C)CCCOc1ccc(-c2cc(NCCCn3cccn3)nc(S(C)(=O)=O)n2)cc1 [TP-238]
fold higher affinity for CECR2 over BPTF [8]: 12 fold

CC(C)n1ncc(Nc2ccc(CN)cc2)c(Cl)c1=O [Compound 25, 5-((4-(aminomethyl)phenyl)amino)-4-chloro-2-isopropylpyridazin-3(2H)-one]
IC50 [9]: > 250 µM

CN(C)CCc1ccc(Nc2cnn(C)c(=O)c2Cl)cc1 [Compound 19, 4-chloro-5-((4-(2-(dimethylamino)ethyl)phenyl)amino)-2-methylpyridazin-3(2H)-one]
sensitization of 4T1 cells to doxorubicin [1]: sensitized; also recorded: synergize
effect on Sfn mRNA level [3]: statistically significant increase

CN(C)CCc1ccc(Nc2c(Cl)cnn(C)c2=O)cc1 [Compound 20, 5-chloro-4-((4-(2-(dimethylamino)ethyl)phenyl)amino)-2-methylpyridazin-3(2H)-one]
fold weaker affinity than 18 [10]: 140 fold
effect on Sfn mRNA level [3]: not significantly affected

Cn1ncc(Nc2ccccc2)c(Cl)c1=O [Compound 6, 4-chloro-2-methyl-5-(phenylamino)pyridazin-3(2H)-one]
affinity for BRD9 [11]: 2.5 µM
affinity for PCAF [12]: 10 µM
